Laboratory results reported in the NIST ThermoML archive (doi:10.1016/j.jct.2014.11.007).

Assay: mn = molality of the nth substance listed, in mol/kg
Details: 100 kPa, Liquid; for speed of sound: Frequency=3 MHz, Sing-around technique in a fixed-path interferometer; for mass density: Vibrating tube method

O=C([O-])Cc1ccccc1Nc1c(Cl)cccc1Cl.[Na+] [sodium diclofenac] + O
Details	mass density, 293.15 K [kg/m3]	mass density, 298.15 K [kg/m3]	mass density, 303.15 K [kg/m3]	mass density, 308.15 K [kg/m3]	mass density, 313.15 K [kg/m3]	speed of sound, 293.15 K [m/s]	speed of sound, 298.15 K [m/s]	speed of sound, 303.15 K [m/s]	speed of sound, 308.15 K [m/s]	speed of sound, 313.15 K [m/s]
m1 = 0.00165	998.454	997.297	995.899	994.285	992.465	1483.5	1497.6	1509.9	1520.6	1529.6
m1 = 0.00255	998.563	997.404	996.005	994.389	992.569	1483.7	1497.7	1510	1520.7	1529.7
m1 = 0.0027	998.582	997.423	996.023	994.407	992.587	1483.7	1497.7	1510	1520.7	1529.7
m1 = 0.00314	998.638	997.477	996.078	994.461	992.64	1483.7	1497.8	1510.1	1520.7	1529.8
m1 = 0.00352	998.687	997.527	996.125	994.508	992.687	1483.8	1497.8	1510.1	1520.8	1529.8
m1 = 0.00413	998.769	997.607	996.205	994.588	992.767	1483.9	1497.9	1510.2	1520.8	1529.8
m1 = 0.00504	998.896	997.733	996.33	994.71	992.886	1484	1498	1510.3	1520.9	1529.9
m1 = 0.00604	999.044	997.88	996.477	994.853	993.027	1484.1	1498.1	1510.4	1521	1530
m1 = 0.00698	999.192	998.027	996.618	994.995	993.169	1484.2	1498.2	1510.5	1521.1	1530.1
m1 = 0.00742	999.257	998.095	996.689	995.064	993.238	1484.3	1498.3	1510.6	1521.1	1530.1
